Earlier results as cited in article PMC12084609, “Structural insights into small-molecule agonist recognition and activation of complement receptor C3aR” (The EMBO Journal, 2025).

System: C3aR
Set-up: method as in Mathieu et al, 2005; Rodriguez et al, 2024
Details: blockade of calcium influx attributed to β-arrestin mediated internalization; ref Mathieu et al, 2005; Rodriguez et al, 2024; cited from earlier work

In the case of `NC(N)=NCCC[C@H](NC(=O)COCC(c1ccccc1)c1ccccc1)C(=O)O` [SB290157], the “activity at C3aR” value is listed as “potent agonist”.
